According to patent US20080161294A1, “Urea derivative, medicinal composition containing the same, and medicinal use of these” (priority 2005, published 2008):
pEC50, pKi: −log10 of the molar value.

Assays:
[1] = molecular target: T1, human V2 receptor (Homo sapiens, UniProt P30518); assay: Study to confirm the agonism of human V2 receptor (intracellular Ca2+, HEK293 cells coexpressing human V2 receptor and Gqs chimeric protein); format: cell-based; set-up: expressed in transfected cells; host or cells: HEK293 cells (American Type Culture Collection), transient transfection with pCI-neo/hV2 and pLEC-Gqs5; conditions: for pEC50: intracellular Ca2+ response, HEK293 cells coexpressing human V2 receptor and Gqs; for I A (intrinsic activity): maximum response relative to AVP = 1.00
T1 sequence (P30518 whole entry): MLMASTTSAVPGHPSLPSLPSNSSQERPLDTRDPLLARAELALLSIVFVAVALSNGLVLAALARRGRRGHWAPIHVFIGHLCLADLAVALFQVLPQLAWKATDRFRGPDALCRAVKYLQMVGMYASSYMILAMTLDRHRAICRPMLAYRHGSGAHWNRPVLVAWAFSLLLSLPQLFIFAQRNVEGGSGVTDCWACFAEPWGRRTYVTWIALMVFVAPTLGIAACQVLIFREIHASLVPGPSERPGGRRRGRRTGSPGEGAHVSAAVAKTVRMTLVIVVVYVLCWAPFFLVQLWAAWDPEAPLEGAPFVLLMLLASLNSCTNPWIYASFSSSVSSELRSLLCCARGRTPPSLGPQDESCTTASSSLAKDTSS
Method: The Study to Confirm the Agonism of Human V2 Receptor
The experiment to confirm the response of the test compounds to human V2 receptor was carried out using the cells prepared as described below in order to use this confirmation study to see the agonism of human V2 receptor of the test compounds.
The test compounds were dissolved in dimethylsulfoxide at 10 mM and solutions of the test compounds were prepared by 10-fold serial dilution with the Assay buffer (0.1% BSA, 20 mM HEPES/Hank's balanced salt solution, pH 7.4) at the concentration of 0.1 nM to 10 μM, which were used in this study.
Human V2 receptor couples with Gs protein, one of the G-coupling protein, and consequently produces cyclic adenosine 3′, 5′-monophosphate (cAMP) via adenylate cyclase. This cAMP produce can be substituted to intracellular increase of Ca^2+ with coexpressing Gqs, a chimeric protein, and human V2 receptor (Mol. Pharmacol., Vol. 50, pp. 885-890, 1996). The responses of the test compounds for human V2 receptor were quantified by measuring this intracellular Ca^2+. The changes of intracellular Ca^2+ after adding the test compounds at each concentration as mentioned above (0.1 nM to 10 μM) were measured with a FlexStation (Molecular Devices) using a FLIPR CALCIUM ASSAY KIT (Molecular Devices).
The intrinsic activities (IA) of the test compounds were calculated from the maximum response of the test compounds as that of AVP was considered to be 1.00. In case of a full agonist, the EC50 values of the test compounds were calculated as the maximum response of AVP was considered to be 100% and in the case of a partial agonist, EC50 values of test compounds were calculated as the maximum response of own test compounds were considered to be 100%. The concentration that achieved to 50% response of the maximum response in a concentration-response curve was considered as EC50 value. The values of EC50 obtained in this study were shown in Table 84 described below as indications of the agonism of human V2 receptor.
The Preparation of the Cells Using Confirmation Study of an Agonism of Human V2 Receptor (HEK293 Cells Coexpressed Human V2 Teceptor and Gqs Chimeric Protein)
HEK293 cells (American Type Culture Collection) were incubated in the Eagle's Minimum Essential Medium (EMEM, Invitrogen) containing 1 mM sodium pyruvate, nonessential amino acids (0.1 mM), streptomycin (100 μg/mL), penicillin (100 U/mL), 10% fetal calf serum (Sanko chemicals) in an incubator with 5% CO2 at 37° C. The transfection was carried out by adding pCI-neo hV2 expression vector, expression vector inserted with the sequence coding Gqs chimeric protein (pLEC-Gqs5, LiveWare, Molecular Devices) and Lipofectamine2000 (Invitrogen), all diluted with OPTI-MEM I Reduced Serum Medium I (Invitrogen), to the cell suspension which was prepared from the confluent cells suspended with EMEM as mentioned above without antibiotics at 1×10^6 cells/mL. After the transfection, the cells (HEK293 cells coexpressed human V2 receptor and Gqs chimeric protein) were incubated in an incubator with 5% CO2 for two days and were used as cells for confirming agonism of human V2 receptor, and used for assessment of the test compounds. The expression plasmid vector of human V2 receptor represented as pCI-neo/hV2 above was constructed by the method as described below.

[2] = test system: anesthetized rats infused with hypotonic solution; assay: Antidiuretic effect on diuresis induced by hypotonic solution in anesthetized rats; format: in vivo, rat; conditions: 10 μg/kg intravenously; for Antidiuretic effect (decreasing rate of urine volume): anesthetized male SD rats, against pre value; for Duration tine: period until decreasing rate of urine volume restored to −20%
Method: The Study of Antidiuretic Effect
The Confirmation Study of Antidiuretic Effect on the Diuretic Activity Induced by Loading Hypotonic Solution in the Anesthetized Rats Infused with Hypotonic Solution
It has been reported that plasma AVP level was decreased with intravenous infusion of hypotonic solution (J. Endocrinol., Vol. 141, pp. 59-67, 1994). The antidiuretic effect of the test compounds in the rats induced a diuretic condition was determined by the method as reported by Angchanpen et al (Br. J. Pharmacol., Vol. 93, pp. 151-155, 1988). The test compounds were dissolved in dimethylsulfoxide at 10 mM, and used in the study. Male SD rats (200-400 g weight) were anesthetized with 100 mg/kg of Inactin (SIGMA) intraperitonealy and each cannula was inserted into trachea, jugular vein, bladder and femoral vein, respectively. The hypotonic solution (0.3% NaCl, 0.83% glucose) was infused via femoral vein at 9 mL/hour. The urine volume obtained via cannula inserted into bladder was measured every 10 minutes. After steady-state of urine volume for three 10 minutes periods, test compounds prepared as mentioned above were administered intravenously at 10 μg/kg via cannula inserted into jugular vein. Dimethylsulfoxide/saline (0.3%) was used as a vehicle. The average of urine volume measured for three 10 minutes periods before the administration was defined as the pre value (0%). After the administration of the test compounds, the urine volume was measured every 10 minutes. The antidiuretic effect, namely the decrease of the urine volume, induced by administration of test compounds was calculated from the decreasing rate of urine volume (minus %) against the pre value. Because maximum decreasing rate of the urine volume after administration of vehicle was −20% in this study, the period that decreasing rate of urine volume restored to −20% after administration of the test compounds was considered as indication of duration time of the test compounds.

[3] = molecular target: T1, human V2 receptor; assay: Binding experiment for human V2 receptor ([3H]-AVP displacement, CHO cell membranes); set-up: purchased Packard BioScience; host or cells: CHO cell membranes; conditions: inhibition of [3H]-AVP binding, CHO cell membranes expressing human V2 receptor; Ki calculated from IC50 and Kd; read-out: Affinity to human V2 receptor Ki
Method: Binding Experiment for Human V2 Receptor
Test compounds were dissolved in dimethylsulfoxide at 10 mM. The affinities for human V2 receptor were determined by an inhibition against [^3H]-Arginie vasopressin (AVP) (Perkin elmer Japan) binding to the human V2 receptor using CHO cell membranes expressed human V2 receptor (Packard BioScience). Cell membranes suspension was prepared by suspending the cell membranes as mentioned above with Assay buffer (50 mM Tris-HCl, 10 mM MgCl2, 0.1% bovine serum albumin (BSA), pH7.4) at an adequate protein concentration. The test compound solutions were prepared by diluting the dimethylsulfoxide solution of the test compound as mentioned above with Assay buffer at final concentration of 10 nM, 100 nM, 1 μM and 10 μM (in this diluting procedure, concentration of dimethylsulfoxide was adjusted to be 0.5% at each concentration of the test compound). Cell membranes suspension (50 μL), 3 nM of [^3H]-AVP (50 μL), Assay buffer (50 μL) and the solution of the test compounds at each concentrations (50 μL) were added to MultiScreen 96-well plate (Millipore) and the mixture was incubated for an hour at 25° C. with shaking slightly. After filtration by aspiration, the plate was washed with ice-cold washing buffer (50 mM Tris-HCl, 10 mM MgCl2, pH 7.4) for three times. After dry the plate, Microscinti-20 (Packard) was added to each well and the plate was shaken slightly, and then radioactivities of each well were counted with a micro plate scintillation counter, TopCount (Packard). Non-specific binding of [^3H]-AVP for cell membranes was determined by adding 1 μM of cold AVP substituted for the test compounds. The concentration of the test compounds inhibiting the specific binding of [^3H]-AVP by 50% was considered as IC50 value.
The Calculation of Kd Value of [^3H]-AVP for the Cell Membranes Expressed Human V2 Receptor
The suspension of the cell membranes expressed human V2 receptor was prepared with diluting adequately with the Assay buffer as mentioned above. In consideration for the radioactivity of [^3H]-AVP, six different concentrations (final concentration; ranging from approximately 100 pM to 6000 pM) of [^3H]-AVP were prepared by serial dilution by from 2 to 3 fold with the Assay buffer. The cell membranes suspension (50 μL), each concentrations of [^3H]-AVP (50 μL), the Assay buffer (50 μL) and 1 μM of cold AVP or the Assay buffer (50 μL) were added to MultiScreen 96-well plate (Millipore) and the mixture was incubated for an hour at 25° C. with shaking slightly. The specific bindings (B value) of each concentrations of the [^3H]-AVP were determined by the method as mentioned above and free-bound contents (F value) at each concentrations of the [^3H]-AVP were determined. The Kd value was calculated by Scatchard analysis using the B value and the F value.

[4] = test system: Male SD rats; assay: Acute toxicity test; format: in vivo; conditions: 10 mg/kg intravenously, N=2, one hour experimental period, urethane anesthesia
Method: Male SD rats (250-300 g weight) were divided into some groups (N=2) and each cannula was inserted into trachea and jugular vein under anesthesia with urethane (1.5 g/kg, subcutaneously). The test compound solutions were prepared with an adequate solvent to be a dosage of 10 mg/kg, and then the solution was administered intravenously via cannula. The survival rate was determined for an hour experimental period.

Structure (SMILES)	pEC50 [1]	I A (intrinsic activity) [1]	pKi [3]	Antidiuretic effect (decreasing rate of urine volume) [2]	Duration tine [2]	Dead [4]
C[C@@H]1CN(C(=O)c2ccc(-n3cccn3)cc2Cl)c2ccccc2CN1C(=O)NCC(=O)N1CCCCC1 [Example 5-6]	7.76	0.92				
C[C@@H]1CN(C(=O)c2ccc(-n3cccn3)cc2F)c2ccccc2CN1C(=O)NCC(N)=O [Example 5-15]	8.04	0.71				
C[C@@H]1CN(C(=O)c2ccc(-n3cccn3)cc2Cl)c2ccccc2CN1C(=O)NCC(=O)N(C)C [Example 5-4]	7.56	0.49		−90.4%	80 min	0/2
C[C@@H]1CN(C(=O)c2ccc(-n3cccn3)cc2Cl)c2ccccc2CN1C(=O)NCC(N)=O [Example 5-2]	8.14	0.71	7.45	−83.9%	50 min	0/2
C[C@@H]1CN(C(=O)c2ccc(N3CCCC3)cc2Cl)c2ccccc2CN1C(=O)NCC(N)=O [Example 5-18]	8.66	0.89	7.56			
C[C@@H]1CN(C(=O)c2ccc(-n3cccn3)cc2Cl)c2ccc(F)cc2CN1C(=O)NCC(N)=O [Example 5-19]	7.81	0.57				
C[C@@H]1CN(C(=O)c2ccc(-n3cccn3)cc2Cl)c2ccccc2CN1C(=O)NCC(=O)N1CCCC1 [Example 5-5]	7.60	0.83		−89.4%	90 min	0/2
C[C@@H]1CN(C(=O)c2ccc(OCCO)cc2Cl)c2ccccc2CN1C(=O)NCC(=O)O [Example 3-6]	7.81	0.93				

More lines, main results first:

pEC50 [1]	I A (intrinsic activity) [1]	pKi [3]	Structure (SMILES)	Antidiuretic effect (decreasing rate of urine volume) [2]	Duration tine [2]	Dead [4]
8.03	0.59	7.71	C[C@@H]1CN(C(=O)c2ccc(-n3cccn3)cc2Cl)c2ccccc2CN1C(=O)NCC(=O)O [Example 3-1, {[(R)-1-(2-Chloro-4-pyrazol-1-ylbenzoyl)-3-methyl-1,2,3,5-tetrahydrobenzo[e]-1,4-diazepin-4-carbonyl]amino}acetic acid]	−88.7%	60 min	
8.04	0.48	7.85	CNC(=O)CNC(=O)N1Cc2ccccc2N(C(=O)c2ccc(-n3cccn3)cc2Cl)C[C@H]1C [Example 5-3]			
8.07	0.75		C[C@@H]1CN(C(=O)c2ccc(-n3cccn3)cc2C(F)(F)F)c2ccccc2CN1C(=O)NCC(N)=O [Example 5-11]			
8.19	0.79		Cc1cc(-n2cccn2)ccc1C(=O)N1C[C@@H](C)N(C(=O)NCC(N)=O)Cc2ccccc21 [Example 5-12]			
7.80	0.75	7.21	C[C@@H]1CN(C(=O)c2ccc(-n3cccn3)cc2Cl)c2ccccc2CN1C(=O)NCCO [Example 4, N-(2-Hydroxyethyl)-(R)-1-(2-chloro-4-pyrazol-1-ylbenzoyl)-3-methyl-1,2,3,5-tetrahydrobenzo[e]-1,4-diazepin-4-carboxamide]			
